How the values were obtained:
[1] = tested on: pERK (ERK phospho-T202/Y204) in SW-480 cells; assay: pERK inhibition in SW-480 cell line (HTRF); assay type: cell-based; settings: Homo sapiens, SW480, 1 hour incubation with compound
Procedure: SW-480 cells were cultured in Leibovitz's L15 (Gibco Cat. No. 11415064), supplemented with 10% fetal bovine serum (Gibco, Cat. No. 1993708), and 1% penicillin and streptomycin. Cells were grown at 37° C., under atmospheric conditions without additional CO2. Cells were seeded into a 96-well tissue-culture treated plate (Greiner, Cat. No. 655180) at a density of 30,000 cell per well, and allowed to adhere for 16 hours before the media was removed, and cells were treated with compounds diluted into culture media at the indicated concentrations. After 1 hour of incubation in the presence of compound, cells were harvested to measure pERK levels using the lysis buffer supplied with the Homogenous Time Resolved Fluorescence pERK kit (HTRF, Cisbio Advance ERK phospho-T202/Y204, Cat. No. 64AERPEG). Lysates were transferred to a 384-well low-volume white plate (PerkinElmer, Cat. No. 6008280) and then treated with the detection reagents supplied by the HTRF kit, according to the “2-plate” protocol supplied by the manufacturer, and incubated for 4-hours at ambient temperature in darkness. Assay plates were read at two fluorescent wavelengths (665 nm and 620 nm) using an Envision plate reader (Perkin Elmer) and data was processed and fitted to a 4-parameter logistic model using Graphpad Prism 8.0 to calculate IC50 values.

[2] = molecular target: KRAS^G12D-FMe.RAF1^RBDCRD complex (Homo sapiens, UniProt P01116, G12D); assay: SHG assay: binding to bilayer-tethered KRAS G12D/RAF1 complex; settings: GppNHp-loaded complex on PS bilayer; compound 0.027-40 μM, monitored over 60 min
Procedure: Compounds suspected to carry intrinsic SHG activity were tested in the presence of an unlabeled KRAS^G12D-FMe.RAF1^RBDCRD complex to monitor binding. PS bilayer was prepared from PS-enriched small unilamellar vesicles (SUVs) purchased from Biodesy, Inc. The concentrated SUVs were diluted in TBS buffer containing 5 mM CaCl2 and incubated on a glass-bottom 384-well Biodesy Delta™ assay plate to allow bilayer formation. Equimolar amounts of GppNHp-loaded KRAS^G12D-FMe and RAF1^RBDCRD were mixed and incubated together on PS bilayer overnight at 4° C. The following day, untethered protein was removed by washing with assay buffer (20 mM Hepes, pH 7.4, […], 1 mM TCEP, 5 μM GppNHp). The SHG signal produced by bilayer-tethered complex was ready using the Biodesy Delta™ platform where each well was pulsed with an 800 nm laser and the resulting second harmonic signal intensity at 400 nm was collected. Compounds were diluted into the same assay buffer and applied to the complex at a final concentration range spanning 0.027 μM-40 μM and the SHG intensity of each well was monitored at 5 minute intervals over a 60 minute time period.

[3] = tested on: Phospho-ERK (Thr202/Tyr204) in MiaPaCa-2 cells; assay: pERK inhibition in MiaPaca-2 cell line (HTRF); assay type: cell-based; settings: Homo sapiens, MIA PaCa-2, 1 hour incubation with compound
Procedure: MiaPaCa-2 cells (ATCC CRL-1420) were cultured in high glucose DMEM (Gibco 11965092) containing 10% fetal bovine serum (Gibco 1993708) and 1× Penicillin/Streptomycin, at 37° C. in a humid atmosphere of 5% CO2 in the air. Cells were plated in tissue-culture treated 96-well plates at a density of 10,000 cells/well and allowed to attach for 16 hours. The medium was then removed, and diluted compounds were added in a final concentration of 0.5% DMSO. After 1 hour of incubation, cells were lysed by the lysis buffer supplied with the Phospho-ERK (Thr202/Tyr204) cellular HTRF kit (Cisbio 64ERKPEH) and transferred to a 384-well low-volume white plate (PerkinElmer 6008280). The cell lysates were treated with the detection reagents supplied with the HTRF kit for 4 hours at ambient temperature in darkness. Two fluorescence intensities at the wavelengths (665 and 620 nm) were measured by the Envision plate reader (Perkin Elmer), and the data were processed and fitted to a 4-parameter logistic model for IC50 calculation (GraphPad Prism 9).

| SMILES | IC50 [1] [µM] | EC50 [2] [µM] | IC50 [3] [µM] |
| --- | --- | --- | --- |
| N#CC1(C(=O)NCc2cnc(-c3ccc(Cl)c(C(F)(F)F)c3)nc2N2CCC(CN)C2)CC1 (centres unmarked) [Compound 5, N-[[4-[3-(aminomethyl)pyrrolidin-1-yl]-2-[4-chloro-3-(trifluoromethyl)phenyl]pyrimidin-5-yl]methyl]-1-cyano-cyclopropanecarboxamide] | 1 to 10 | 1 to 10 | 1 to 10 |
| Cc1ccc(-c2ncc(CNC(=O)C3(C#N)CC3)c(N3CCC(CN)C3)n2)cc1Cl (centres unmarked) [Compound 41] | 1 to 10 | 1 to 10 | 0.1 to 1 |
| Cc1cc(-c2ncc(CNC(=O)C3(C#N)CC3)c(N3CCC(CN)C3)n2)ccc1Cl (centres unmarked) [Compound 52] | 1 to 10 | 10 to 50 | 1 to 10 |
| N#CC1(C(=O)NCc2cnc(-c3ccc(Cl)c(C(F)F)c3)nc2N2CCC(CN)C2)CC1 (centres unmarked) [Compound 57] | 1 to 10 | 10 to 50 | 1 to 10 |
| Cc1ccc(-c2ncc(CNC(=O)C3(F)CC3)c(N3CCC(CN)C3)n2)cc1Cl (centres unmarked) [Compound 59] | 1 to 10 | 1 to 10 | 1 to 10 |
| Cc1ccc(-c2ncc(CNC(=O)C3(C#N)CC3)c(N3CC[C@@H](CN)C3)n2)cc1Cl [Compound 62] | 1 to 10 | 1 to 10 | 0.1 to 1 |
| Cc1ccc(-c2ncc(CNC(=O)C3(C#N)CC3)c(N3CCC(N)CC3)n2)cc1Cl [Compound 67] | 1 to 10 | 1 to 10 | 0.1 to 1 |
| Cc1ccc(-c2ncc(CNC(=O)C3(F)CC3)c(N3CC[C@@H](CN)C3)n2)cc1Cl [Compound 72] | 1 to 10 | – | 1 to 10 |
| Cc1ccc(-c2ncc(CNC(=O)C3(C#N)CC3)c(N3CC[C@H](CN)C3)n2)cc1Cl [Compound 73] | 0.1 to 1 | 1 to 10 | 0.1 to 1 |
| Cc1ccc(-c2ncc(CNC(=O)C3(F)CC3)c(N3CCN(C)CC3)n2)cc1Cl [Compound 83] | 10 to 50 | 10 to 50 | 1 to 10 |
| Cc1ccc(-c2ncc(CNC(=O)C3(F)CC3)c(N3C[C@@H]4[C@@H](N)[C@@H]4C3)n2)cc1Cl [Compound 84] | 1 to 10 | 1 to 10 | 1 to 10 |
| Cc1ccc(-c2ncc(CNC(=O)C3(C#N)CCC3)c(N3CCC(CN)C3)n2)cc1Cl (centres unmarked) [Compound 87] | 1 to 10 | 1 to 10 | 1 to 10 |
| NCC1CCN(c2nc(-c3ccc(C(F)(F)F)c(Cl)c3)ncc2N2CCCC2=O)C1 (centres unmarked) [Compound 90, 1-[4-[3-(aminomethyl)pyrrolidin-1-yl]-2-[3-chloro-4-(trifluoromethyl)phenyl]pyrimidin-5-yl]pyrrolidin-2-one] | 1 to 10 | 1 to 10 | 1 to 10 |
| Cc1ccc(-c2ncc(CNC(=O)C3(F)CC3)c(N3CCNCC3)n2)cc1Cl [Compound 91] | 1 to 10 | 1 to 10 | 1 to 10 |
| N#CC1(C(=O)NCc2cnc(-c3ccc4c(c3)CCC4)nc2N2CCC(CN)C2)CC1 (centres unmarked) [Compound 104] | 1 to 10 | 10 to 50 | 0.1 to 1 |
| Cc1ccc(-c2ncc(CNC(=O)C3(CO)CC3)c(N3CCC(CN)C3)n2)cc1Cl (centres unmarked) [Compound 105] | 1 to 10 | 10 to 50 | 0.1 to 1 |
| NCC1CCN(c2nc(-c3ccc(C(F)(F)F)c(Cl)c3)ncc2N2CCNC2=O)C1 (centres unmarked) [Compound 109, 1-[4-[3-(aminomethyl)pyrrolidin-1-yl]-2-[3-chloro-4-(trifluoromethyl)phenyl]pyrimidin-5-yl]imidazolidin-2-one] | – | 1 to 10 | 1 to 10 |
| Cc1ccc(-c2ncc(NC(=O)C3(C#N)CC3)c(N3CCC(CN)C3)n2)cc1Cl (centres unmarked) [Compound 110] | – | 10 to 50 | 1 to 10 |
| Cc1ccc(-c2ncc(NS(=O)(=O)c3ccccc3)c(N3CCC(CN)C3)n2)cc1Cl (centres unmarked) [Compound 112] | 1 to 10 | 1 to 10 | 1 to 10 |
| Cc1ccc(-c2ncc(NC(=O)C3CC3)c(N3CCC(CN)C3)n2)cc1Cl (centres unmarked) [Compound 113] | – | 10 to 50 | 1 to 10 |
| CCOC(=O)NCc1cnc(-c2ccc(C)c(Cl)c2)nc1N1CCC(CN)C1 (centres unmarked) [Compound 118] | – | 10 to 50 | 1 to 10 |
| Cc1ccc(-c2ncc(CN3CCNC3=O)c(N3CCC(CN)C3)n2)cc1Cl (centres unmarked) [Compound 119] | – | 1 to 10 | 1 to 10 |
| Cc1ccc(-c2ncc(CN3CCN(C)C3=O)c(N3CCC(CN)C3)n2)cc1Cl (centres unmarked) [Compound 120] | – | 10 to 50 | 1 to 10 |
| Cc1ccc(-c2ncc(CN3CCOC3=O)c(N3CCC(CN)C3)n2)cc1Cl (centres unmarked) [Compound 121, 3-[[4-[3-(aminomethyl)pyrrolidin-1-yl]-2-(3-chloro-4-methyl-phenyl)pyrimidin-5-yl]methyl]oxazolidin-2-one] | – | 1 to 10 | 1 to 10 |
| Cc1ccc(-c2ncc(CN3CCCC3=O)c(N3CCC(CN)C3)n2)cc1Cl (centres unmarked) [Compound 122] | – | 1 to 10 | 1 to 10 |
| Cc1ccc(-c2ncc(OCC(=O)NC3CC3)c(N3CCC(CN)C3)n2)cc1Cl (centres unmarked) [Compound 126] | – | 1 to 10 | 1 to 10 |

Reference: patent US20240327356A1, “PYRIMIDINE BASED RAS MODULATORS AND USES THEREOF” (QUANTA THERAPEUTICS, INC., priority 2021, published 2024)
